According to US20230255939A1, “Antimicrobial Agent for Non-Human Animal” (ISHIHARA SANGYO KAISHA, LTD, priority 2020, published 2023):
In brackets after ≈: the same amount, converted by molar mass. Where two headings read alike, the source gives them in different places.

Legend:
Format in all cases: cell-based
[1] = tested on: Malassezia pachydermatis (IFM56528 strain); assay: Antimicrobial activity test: colony formation inhibition after 1 minute contact (Test Examples 1 and 2); settings: M. pachydermatis IFM56528, final concentration 500 ppm, then culturing at 32° C. for 72 hours, read-out: Colony formation inhibition rate (%)
Experimental: Test microbial strain: Malassezia pachydermatis (IFM56528 strain, strain obtained from Chiba University) The Malassezia microbe (Malassezia pachydermatis) cultured for 5 to 7 days in a Sabouraud medium (1% peptone, 4% dextrin, 1.5% agar) supplemented with 0.5% of Tween 40 (polyoxyethylene sorbitan monopalmitate: manufactured by Kanto Chemical Co., Inc.) was suspended in physiological saline and a suspension thereof was prepared in such a way as to have an absorbance of 0.25 at 550 nm. […] Colony formation inhibition rate (%) = [(number of colonies in non-agent treated plot - number of colonies in inventive plot)/number of colonies in non-agent treated plot] × 100 Test compound: Compound No. 1 (final concentration of 500 ppm) Test microbial strains: Malassezia pachydermatis (IFM56528 strain), M. furfur (IMF55951 strain), M. sympodialis (IMF48588 strain), M. globosa (IMF51946 strain), and M. restricta (IMF55992 strain) The colony formation inhibition rate for each of the test strains was determined by the same method as in Test Example 1.

[2] = tested on: Microsporum canis (TIMM20080 strain); assay: Antimicrobial activity test, minimum inhibitory concentration (Test Example 4); settings: Sabouraud media, 28° C. for 72 hours
Experimental: Test Example 4: Antimicrobial Activity Test Test Compound: Compound No. 1
Test Microbial Strain: Microsporum Canis (TIMM20080 Strain)
(§1) The microbial strain was cultured in a Sabouraud medium containing 500 µg/mL of cycloheximide and 50 µg/mL of chloramphenicol at 28° C. for 8 days, then spores were collected in physiological saline containing Tween80 (0.05% (v/v)), this was filtered through a cell strainer (φ40 µm), the spores were recovered from the filtrate by centrifugation (3500 rpm, 5 minutes) and washed twice with physiological saline, and then a spore suspension was prepared (1 × 10^7 spores/mL). 10 µL of the spore suspension was inoculated into Sabouraud media to which compound No. 1 dissolved in DMSO was added to have various concentrations. After culturing at 28° C. for 72 hours, the amount of microbial growth was investigated, and the minimum inhibitory concentration was determined.

[3] = tested on: Arthroderma vanbreuseghemii (TIMM2789); assay: Antifungal activity test, minimum inhibitory concentration (Test Example 9); settings: Trichophyton mentagrophytes, Sabouraud media, 28° C. for 72 hours, read-out: Minimum inhibitory concentration (MIC100)
Experimental: as §1, with “Test Example 9: Antifungal Activity Test Test Compound: Compound No. 1 Test Microbial Strain: Arthroderma Vanbreuseghemii (TIMM2789) The” for “The”, “concentrations.” for “concentrations. After culturing at 28° C. for 72 hours, the amount of microbial growth was investigated, and the minimum inhibitory concentration was determined.”

[4] = tested on: Microsporum canis (IFM63627); assay: Antifungal activity test, minimum inhibitory concentration (Test Example 7); settings: Sabouraud medium, 32° C. for 72 hours, read-out: Minimum inhibitory concentration (MIC100)
Experimental: Test Example 7: Antifungal Activity Test
(§2) Test Compound: Compound No. 6
(§3) Test Microbial Strain: Microsporum Canis (IFM63627)
The antifungal activity was studied by partially modifying the method of Test Example 5. Microsporum canis was cultured at 32° C. for 168 hours in a ⅒ Sabouraud medium to form spores, then 10 mL of physiological saline (Otsuka Normal Saline; containing 9 g of sodium chloride in 1000 mL) was added directly onto the medium, and the surface was rubbed using a disposable loop (type 1 (1 µL)) to recover a spore suspension containing hyphae. The spore suspension containing hyphae was filtered through a cell strainer (φ40 µm). The spores were recovered from the filtrate by centrifugation (3500 rpm, 5 minutes) and washed twice with physiological saline, and then a spore suspension was prepared (1 × 10^7 spores/mL). 10 µL of the spore suspension was inoculated into a Sabouraud medium to which the test compound dissolved in DMSO was added to have a predetermined concentration. Microsporum canis was cultured at 32° C. for 72 hours, then the presence or absence of colony growth was investigated, and the minimum inhibitory concentration (MIC100) was determined.

[5] = tested on: Microsporum canis (IFM63627); assay: Antifungal activity test, minimum fungicidal concentration on spores (Test Example 8); settings: read-out: Minimum fungicidal concentration (MFC100)
Experimental: Test Example 8: Antifungal Activity Test
as §2, §3
Microsporum canis was cultured at 32° C. for 168 hours in a ⅒ Sabouraud medium to form spores, then 10 mL of physiological saline (Otsuka Normal Saline; containing 9 g of sodium chloride in 1000 mL) was added directly onto the medium, and the surface was rubbed using a disposable loop (type 1 (1 µL)) to recover a spore suspension containing hyphae. The spore suspension containing hyphae was filtered through a cell strainer (φ40 µm). The spores were recovered from the filtrate by centrifugation (3500 rpm, 5 minutes) and washed twice with physiological saline, and then a spore suspension was prepared (1 × 10^7 spores/mL). 10 µL of the spore suspension was inoculated into 90 µL of physiological saline to which compound No. 6 dissolved in DMSO was added to have a predetermined concentration. […] The 10-µL spore suspension was spotted onto a Sabouraud medium and subjected to culturing at 32° C. for 72 hours, the presence or absence of colony growth was investigated, and the minimum fungicidal concentration (MFC100) was determined.

MIC [2] [µg/mL] | MIC [3] [µg/mL] | MIC [4] [µg/mL] | Compound | inhibition at 500 ppm [1] [%] | MFC ([5]; treatment time 24 Hours) [µg/mL] | MFC ([5]; treatment time 96 Hours) [µg/mL]
10 (≈ 45.9 µM) | 10 (≈ 45.9 µM) |  | Cc1ccc(-c2nc(C#N)[nH]c2Cl)cc1 [Compound No. 1, 5-Chloro-4-(4-methylphenyl)-1H-imidazole-2-carbonitrile] | 100 |  | 
 |  | 5 (≈ 19.8 µM) | Cc1ccc(-c2nc(C#N)[nH]c2Cl)cc1Cl [Compound No. 6, 5-chloro-4-(3-chloro-4-methylphenyl)-1H-imidazole-2-carbonitrile] |  | 50 (≈ 198 µM) | 10 (≈ 39.7 µM)
